{
  "source": "paper PMC3670040",
  "about": "“Structure of Lipid Kinase p110β/p85β Elucidates an Unusual SH2-Domain-Mediated Inhibitory Mechanism” (Molecular Cell, 2011)",
  "system": "p110β/p85β-nicSH2",
  "test": "[γ32P]-ATP nitrocellulose-binding assay of PIP3 production",
  "format": "biochemical, mouse",
  "method": "or absence of 10 μM PDGF bis-phosphopeptide. Reactions were carried out with 1 μCi [γ32P]-ATP per reaction, with 100 μM ATP and 1 mg/ml total “brain lipids” or 1.5 mM diC8-PIP2/POPS vesicles for 60 min. The vesicle compositions are indicated.\n(B) Integrated intensities of the spots using the “brain liposomes” (left panel) or diC8-PIP2/POPS liposomes (Invitrogen) (right panel), quantitated with the ImageQuant software.\nThe bars represent standard deviations of the mean for two measurements. The hatched bars are for reactions in the presence of PDGF bis-phosphopeptide.\n(C) SDS PAGE analysis of the proteins used for the assays in (A and B). Samples of 10 μl of […] protein solutions for each of the reaction were analyzed on a 4-12% NuPAGE Novex Bis-Tris gel in MES running buffer (Invitrogen). The upper band is the p110 subunit and the lower band is the regulatory subunit.\n(D) Stereo view of the contacts between the p85β-cSH2 domain and the C-lobe of the kinase domain. The Tyr677-p85β (red) inserts into a hydrophobic groove between the two elbows kα7/kα8 (yellow) and kα11/kα12 (orange). Tyr677-p85β also makes a potential hydrogen bond with Ser1046-p110β (dashed black line).\nTo determine the effect of receptor tyrosine kinases (RTK) on PI3K activity, the assays were performed in absence or presence of 10 μM pY peptides:\n7. Mm-PDGFR (pY2): ESDGG(pY)MDMSKDESID(pY)VPMLDMKGDIKYADIE (residues\n10. Hs-PDGFR-pY740+5 position 5 mutated to P: DGG(pY)MDMSP\n11. Hs-PDGFR-pY740+5 position 5 mutated to A: DGG(pY)MDMSA\n12. Hs-PDGFR-pY740+5 position 5 mutated to S: DGG(pY)MDMSS\n13. […]\nThe reactions were stopped by addition of 10 μl of stop/detection buffer (1X Stop & Detect Buffer B, 4 nM ADP Alexa633 Tracer, 109 μg/ml ADP2 antibody), followed by 1 h equilibration. Fluorescence polarization was measured on a PHERAStar plus HTS microplate reader (BMG Labtech), using a fluorescence polarization module with excitation centered at 633 nm and emission at 650 nm. […]\nThe PIP3 lipids produced in PI3K in vitro assays as described above were also measured by a mass-spectrometry based assay (Clark et al.). […]",
  "note": "Square brackets hold non-standard residues; d marks the D form. Ends that are not written are not given here. pY = N[C@@H](Cc1ccc(OP(=O)(O)O)cc1)C(=O)O",
  "data": [
    {"substance": "ESDGG[pY]MDMSKDESID[pY]VPMLDMKGDIKYADIE [pY2, bis-phosphopeptide (PDGFR 735–767, with pY740 and pY751)]", "values": [
      {"measurement": "fold activation by pY2, PIP3 formation, brain lipids", "setting": "p110β/p85β-nicSH2, 10 μM pY2, 1 mg/ml brain lipids (5% PIP2, 20% PS, 15% PC, 45% PE, 5% sphingomyelin, 10% cholesterol), 100 μM ATP, 60 min", "value": 10, "unit": "fold"},
      {"measurement": "fold activation by pY2, PIP3 formation, diC8-PIP2/POPS liposomes", "setting": "p110β/p85β-nicSH2, 10 μM pY2, 1.5 mM diC8-PIP2/POPS, 100 μM ATP, 60 min", "value": 16, "unit": "fold"},
      {"measurement": "effect on lipid kinase activity of p110β SH2-containing complexes, PIP3 formation", "setting": "radioactive phosphorylation assay, Figures S2A–S2C", "value": "stimulates lipid kinase activity"}
    ]}
  ]
}
